Columns and labels:
wheat [1] = assay: Test C postemergence; format: in vivo, Triticum aestivum; conditions: 10 days, 0 to 100 scale (0 no effect, 100 complete control)
Summary of the method: (§1)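 Greenhouse herbicide screen, 10-day duration. Test chemicals in solvent/surfactant blend were sprayed onto soil at sowing (pre) or onto 2–10 cm seedlings at one to two leaves (post); injury scored visually against controls, 0 no effect to 100 complete control.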

green foxtail [2] = assay: Test C postemergence; format: in vivo, Setaria viridis; conditions: 10 days, 0 to 100 scale (0 no effect, 100 complete control)
Summary of the method: as §1

oat, wild [3] = assay: Test C preemergence; format: in vivo, Avena fatua
Summary of the method: as §1

rice = assay: Test D flooded paddy test; format: in vivo, Oryza sativa; conditions: 250 g ai/ha, applied to paddy water, visual rating after 13 to 14 days, scale 0 to 100 (0 no effect, 100 complete control)
Summary of the method: (§2)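 Rating scale 0–100 (0 no effect, 100 complete control), visual, versus controls. Readout at 13–14 days after in-water application to 2-leaf plants in pots flooded 3 cm deep.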

sedge, umbrella = assay: Test D flooded paddy test; format: in vivo, Cyperus difformis; conditions: 250 g ai/ha, applied to paddy water, visual rating after 13 to 14 days, scale 0 to 100 (0 no effect, 100 complete control)
Summary of the method: as §2

wheat [4] = assay: Test C preemergence; format: in vivo, Triticum aestivum
Summary of the method: as §1

kochia [5] = assay: Test C preemergence; format: in vivo, Bassia scoparia
Summary of the method: as §1

barnyardgrass [6] = assay: Test C postemergence; format: in vivo, Echinochloa crusgalli; conditions: 10 days, 0 to 100 scale (0 no effect, 100 complete control)
Summary of the method: as §1

pigweed, palmer [7] = assay: Test C preemergence; format: in vivo, Amaranthus palmeri
Summary of the method: as §1

kochia [8] = assay: Test C postemergence; format: in vivo, Bassia scoparia; conditions: 10 days, 0 to 100 scale (0 no effect, 100 complete control)
Summary of the method: as §1

ragweed [9] = assay: Test C preemergence; format: in vivo, Ambrosia artemisiifolia
Summary of the method: as §1

barnyardgrass [10] = assay: Test C preemergence; format: in vivo, Echinochloa crusgalli
Summary of the method: as §1

horseweed = assay: Test C postemergence; format: in vivo, Erigeron canadensis; conditions: 10 days, 0 to 100 scale (0 no effect, 100 complete control)
Summary of the method: as §1

pigweed, palmer [11] = assay: Test C postemergence; format: in vivo, Amaranthus palmeri; conditions: 10 days, 0 to 100 scale (0 no effect, 100 complete control)
Summary of the method: as §1

ryegrass, Italian [12] = assay: Test C postemergence; format: in vivo, Lolium multiflorum; conditions: 10 days, 0 to 100 scale (0 no effect, 100 complete control)
Summary of the method: as §1

blackgrass [13] = assay: Test C preemergence; format: in vivo, Alopecurus myosuroides
Summary of the method: as §1

ryegrass, Italian [14] = assay: Test C preemergence; format: in vivo, Lolium multiflorum
Summary of the method: as §1

blackgrass [15] = assay: Test C postemergence; format: in vivo, Alopecurus myosuroides; conditions: 10 days, 0 to 100 scale (0 no effect, 100 complete control)
Summary of the method: as §1

ragweed [16] = assay: Test C postemergence; format: in vivo, Ambrosia artemisiifolia; conditions: 10 days, 0 to 100 scale (0 no effect, 100 complete control)
Summary of the method: as §1

galium = assay: Test C postemergence; format: in vivo, Galium aparine; conditions: 10 days, 0 to 100 scale (0 no effect, 100 complete control)
Summary of the method: as §1

corn [17] = assay: Test C preemergence; format: in vivo, Zea mays
Summary of the method: as §1

soybean [18] = assay: Test C preemergence; format: in vivo, Glycine max
Summary of the method: as §1

corn [19] = assay: Test C postemergence; format: in vivo, Zea mays; conditions: 10 days, 0 to 100 scale (0 no effect, 100 complete control)
Summary of the method: as §1

oat, wild [20] = assay: Test C postemergence; format: in vivo, Avena fatua; conditions: 10 days, 0 to 100 scale (0 no effect, 100 complete control)
Summary of the method: as §1

soybean [21] = assay: Test C postemergence; format: in vivo, Glycine max; conditions: 10 days, 0 to 100 scale (0 no effect, 100 complete control)
Summary of the method: as §1

green foxtail [22] = assay: Test C preemergence; format: in vivo, Setaria viridis
Summary of the method: as §1

ducksalad = assay: Test D flooded paddy test; format: in vivo, Heteranthera limosa; conditions: 250 g ai/ha, applied to paddy water, visual rating after 13 to 14 days, scale 0 to 100 (0 no effect, 100 complete control)
Summary of the method: as §2

barnyardgrass [23] = assay: Test D flooded paddy test; format: in vivo, Echinochloa crus-galli; conditions: 250 g ai/ha, applied to paddy water, visual rating after 13 to 14 days, scale 0 to 100 (0 no effect, 100 complete control)
Summary of the method: as §2

[24] = 500 g ai/ha, preemergence, 0 to 100 scale (0 no effect, 100 complete control)
[25] = Preemergence, 125 g ai/ha, 0 to 100 scale, 0 no effect, 100 complete control

CCOCC1CN(C(=O)c2cc(-n3cnc(C4CCC4)n3)ccc2OC)c2cccc(Cl)c2O1 (stereo not shown) [Compound 377]
50: Plant response rating, Barnyardgrass (barnyardgrass [6]; 500 g ai/ha, postemergence) | Plant response rating, Horseweed (horseweed; Postemergence, 125 g ai/ha) | Plant response rating, Ryegrass, Italian (ryegrass, Italian [12]; 500 g ai/ha, postemergence) | Plant response rating, Foxtail, Green (green foxtail [22]; [25])
60: Plant response rating, Ryegrass, Italian (ryegrass, Italian [14]; [25]) | Plant response rating, Soybean (soybean [18]; [25])
100: Kochia plant response rating (kochia [5]; [24]) | Pigweed, Palmer plant response rating (pigweed, palmer [7]; [24]) | Plant response rating, Pigweed, Palmer (pigweed, palmer [7]; [25]) | Barnyardgrass plant response rating (barnyardgrass [10]; [24]) | Plant response rating, Pigweed, Palmer (pigweed, palmer [11]; 500 g ai/ha, postemergence) | Plant response rating, Galium (galium; 500 g ai/ha, postemergence) | Plant response rating, Galium (galium; Postemergence, 125 g ai/ha) | Plant response rating, Soybean (soybean [21]; 500 g ai/ha, postemergence) | Plant response rating, Soybean (soybean [21]; Postemergence, 125 g ai/ha) | Foxtail, Green plant response rating (green foxtail [22]; [24])
40: Plant response rating, Foxtail, Green (green foxtail [2]; 500 g ai/ha, postemergence) | Plant response rating, Barnyardgrass (barnyardgrass [10]; [25]) | Plant response rating, Ryegrass, Italian (ryegrass, Italian [12]; Postemergence, 125 g ai/ha)
30: Plant response rating, Wheat (wheat [1]; 500 g ai/ha, postemergence) | Plant response rating, Barnyardgrass (barnyardgrass [6]; Postemergence, 125 g ai/ha) | Plant response rating, Ragweed (ragweed [9]; [25]) | Plant response rating, Horseweed (horseweed; 500 g ai/ha, postemergence) | Plant response rating, Corn (corn [19]; 500 g ai/ha, postemergence)
20: Plant response rating, Wheat (wheat [1]; Postemergence, 125 g ai/ha) | Plant response rating, Foxtail, Green (green foxtail [2]; Postemergence, 125 g ai/ha) | Oat, Wild plant response rating (oat, wild [3]; [24]) | Plant response rating, Oat, Wild (oat, wild [3]; [25]) | Wheat plant response rating (wheat [4]; [24]) | Blackgrass plant response rating (blackgrass [13]; [24]) | Plant response rating, Blackgrass (blackgrass [15]; 500 g ai/ha, postemergence) | Corn plant response rating (corn [17]; [24]) | Plant response rating, Corn (corn [19]; Postemergence, 125 g ai/ha)
80: Plant response rating, Ragweed (ragweed [16]; Postemergence, 125 g ai/ha)
55: Plant response rating, Sedge, Umbrella (Flood) (sedge, umbrella)
0: Plant response rating, Rice (Flood) (rice) | Plant response rating, Wheat (wheat [4]; [25]) | Plant response rating, Blackgrass (blackgrass [13]; [25]) | Plant response rating, Blackgrass (blackgrass [15]; Postemergence, 125 g ai/ha) | Plant response rating, Corn (corn [17]; [25]) | Plant response rating, Oat, Wild (oat, wild [20]; 500 g ai/ha, postemergence) | Plant response rating, Oat, Wild (oat, wild [20]; Postemergence, 125 g ai/ha) | Plant response rating, Barnyardgrass (Flood) (barnyardgrass [23])
70: Plant response rating, Kochia (kochia [5]; [25]) | Ragweed plant response rating (ragweed [9]; [24]) | Ryegrass, Italian plant response rating (ryegrass, Italian [14]; [24])
90: Plant response rating, Kochia (kochia [8]; 500 g ai/ha, postemergence) | Plant response rating, Kochia (kochia [8]; Postemergence, 125 g ai/ha) | Plant response rating, Pigweed, Palmer (pigweed, palmer [11]; Postemergence, 125 g ai/ha) | Plant response rating, Ragweed (ragweed [16]; 500 g ai/ha, postemergence) | Soybean plant response rating (soybean [18]; [24])
15: Plant response rating, Ducksalad (Flood) (ducksalad)
